Article PMC7426420, “Cupid, a cell permeable peptide derived from amoeba, capable of delivering GFP into a diverse range of species” (Scientific Reports, 2020)

Tested on: Dictyostelium discoideum AX2 strain cells
Assay: Cell penetration into Dictyostelium amoeba cells, fluorescence microscopy of fixed cells
Type: cell-based
Settings: 10 µM, 60 min in buffer, washed 3 times, fixed with Fluorsave, green fluorescent filter; GFP proteins denatured, non-fluorescent when added
Procedure: Dictyostelium discoideum AX2 strain cells were grown on Klebsiella aerogenes plates. For experimentation, cells at the growth zone were collected and washed 5 times with 10 mM potassium phosphate buffer, pH 7.2 and seeded in slide chambers at a density of 10^5 cells/mL. Cells were incubated with FITC-labelled Cupid, Cupid-GFP or H-GFP at the doses indicated for 60 min, washed 3 times in buffer and fixed in situ using Fluorsave (Calbiochem, UK) under a coverslip. Cell microscopy was performed on an upright fluorescence microscope (Olympus BX61) with the green fluorescent filter set, coupled with a digital camera.

Row | Substance | cells become fluorescent (cell-penetrating capability)
1 | RRVQIWFQNKRAKVKR [F-Cupid] | caused the cells to become fluorescent
2 | fluorescein-labelled BSA: fluorescein-labelled BSA control (data not shown) | did not
